# Columns and labels:
# benzodiazepine receptor = experiment: Binding test to benzodiazepine receptor (inhibition of specific binding of tritium labeled diazepam); design: species or system Wistar rats (cerebral cortex); details: 2 nM tritium labeled diazepam, rat cerebral cortex, 0° C., 60 minutes; Ki calculated from IC50
# Protocol: Binding test to benzodiazepine receptor
# This test was carried out in the modified method of Moeler & Okada, Science, 198, 849-851 (1977).
# Receptor preparation was provided from the cerebral cortex of Wistar rats (male, 11 to 13 weeks age). Inhibitory action of the test compound on the specific binding of tritium labeled diazepam to the receptor was evaluated as follows. 2 nM tritium labeled diazepam and an aqueous solution of the test compound at 5 or 6 concentrations were incubated with the receptor preparation at 0° C. for 60 minutes. The 50% inhibitory concentration (IC50) was measured by the concentration-response curve.
# The inhibitory constant (Ki) was calculated according to the following equation, in which Kd is the dissociation constant of the tritium labeled diazepam and L is the concentration of the labeled ligand. [formula]
# male mice = experiment: Inverse agonist activity (oral compound 1 hour before subcutaneous pentylenetetrazol, mice); format: in vivo; details: Mus musculus, 1 hour before s.c. 75 mg/kg pentylenetetrazol (subconvulsive dose), 8-16 male mice a group, Probit method, read-out: ED50 (dose at which 50% of mice died)
# Protocol: Inverse agonist activity was evaluated by the following procedure.
# The test compound was administered orally to 8-16 male mice a group, 1 hour before a subcutaneous administration of 75 mg/kg of pentylenetetrazol (a subconvulsive dose). The dose (ED50) at which 50% of mice died, was calculated by the Probit method.
Structure (SMILES),Ki (benzodiazepine receptor) [pM],ED50 (male mice) [mg/kg]
Cc1ccc2c3nn(-c4csc(C)c4)c(=O)c-3c[nH]c2c1 [Ic2 -8],1240,–
CCCCc1ccc(-n2nc3c4ccccc4[nH]cc-3c2=O)s1 [Ic1 -5],1530,–
Cc1ccc(-n2nc3c4cc(Cl)ccc4[nH]cc-3c2=O)s1 [Ic1 -8],310,–
"Cc1cc(-n2nc3c4ccccc4[nH]cc-3c2=O)cs1 [Ic2 -2, 2-[3-(5-methylthienyl)]-2,5-dihydro-3H-pyrazolo[4,3-c]quinolin-3-one]",450,1.67
"O=c1c2c[nH]c3ccccc3c-2nn1-c1ccsc1 [Ic2 -1, 2-(3-Thienyl)-2,5-dihydro-3H-pyrazolo[4,3-c]quinolin-3-one]",290,–
Cc1csc(-n2nc3c4ccccc4[nH]cc-3c2=O)c1 [Ic1 -12],380,–
Cc1ccc2[nH]cc3c(=O)n(-c4csc(C)c4)nc-3c2c1 [Ic2 -4],300,–
Cc1cc(-n2nc3c4ccccc4[nH]cc-3c2=O)sc1C [Ic1 -3],630,–
Cc1ccc2c3nn(-c4ccc(C)s4)c(=O)c-3c[nH]c2c1 [Ic1 -10],1440,–
Cc1cc(-n2nc3c4ccc(Cl)cc4[nH]cc-3c2=O)cs1 [Ic2 -9],960,–
COc1ccc2[nH]cc3c(=O)n(-c4ccc(C)s4)nc-3c2c1 [Ic1 -7],170,–
Cc1ccc2[nH]cc3c(=O)n(-c4ccc(C)s4)nc-3c2c1 [Ic1 -6],220,–
Cc1cc(-n2nc3c4cc(Cl)ccc4[nH]cc-3c2=O)cs1 [Ic2 -6],580,–
Cc1ccc(-n2nc3c4cc(F)ccc4[nH]cc-3c2=O)s1 [Ic1 -9],140,–
CCc1ccc(-n2nc3c4ccccc4[nH]cc-3c2=O)s1 [Ic1 -2],1510,–
"O=c1c2c[nH]c3ccccc3c-2nn1-c1nccs1 [Control 2, reference compound]",–,87
"COc1ccc2[nH]cc3c(=O)n(-c4csc(C)c4)nc-3c2c1 [Ic2 -5, 2-[3-(5-methylthienyl)]-8-methoxy-2,5-dihydro-3H-pyrazolo[4,3-c]quinolin-3-one]",390,–
Cc1cc(-n2nc3c4cc(F)ccc4[nH]cc-3c2=O)cs1 [Ic2 -7],170,–
"Cc1ccc(-n2nc3c4ccccc4[nH]cc-3c2=O)s1 [Ic1 -1, 2-[2-(5-Methylthienyl)]-2,5-dihydro-3H-pyrazolo[4,3-c]quinolin-3-one]",350,–
Cc1ccc(-n2nc3c4ccc(Cl)cc4[nH]cc-3c2=O)s1 [Ic1 -11],1110,–

# Source: patent US4690930A, “Pyrazolo[4,3-c]quinoline-3-one and imidazo[4,3-c]cinnolin-3-one derivatives and their use as psychotropic agents” (Shionogi & Co., Ltd, priority 1984, dated 1987)
